Consider five molecules from patent US9493460B2, “Diimide compounds” (UCL BUSINESS PLC, priority 2013, dated 2016).

“Also recorded” adds a separate entry of the source.

Test [1] relates to human telomeric G-quadruplex DNA (F21T). Description: FRET melting assay, human telomeric quadruplex. It counts as binding. Conditions: FRET melting.
The test system of test [2] is panel of cancer cell lines. In words: SRB assay, panel of cancer cell lines and normal fibroblast line. Type of test: cell-based, human. Conditions: Homo sapiens, Fibroblast, 96 h exposure, read-out: IC50 values across the cell line panel. On the procedure:
(§1) Human cancer cell lines, MCF7 (breast), A549 (lung), Mia-PaCa2, PANC1 and HPAC (pancreatic), RCC4 and 786-0 renal, and the somatic human cell line WI-38 (lung fibroblast) were purchased from ATCC. Cell lines were maintained in appropriate medium supplemented with 10% foetal bovine serum (Invitrogen, UK), 2 mM L-glutamine (Invitrogen, Netherlands), and other components as specified by the suppliers. Cell lines were maintained at 37° C., 5% CO2 and routinely passaged. Drugs were dissolved in DMSO and filtered through 0.22 μm pore-size filter units before addition to cell line appropriate media. Cellular growth inhibition was measured using the sulforhodamine B (SRB) assay in 96 well plates as described previously.^1,2 Fifty percent inhibitory concentrations (IC50) were determined by taking the mean absorbance at 540 nm for each drug concentration expressed as a percentage of the absorbance of untreated control wells.
(§2) The anti-proliferative activity of the group of nine ND derivatives was assessed using the SRB assay following 96 h exposure to 2-fold serial dilutions of each compound (Table 2) in a panel of cancer cell lines together with a normal fibroblast line. […] In contrast the morpholine compounds all show sub-μM anti-proliferative activity in at least some of the cancer cell lines used and the two compounds 3d, 3h with n=3 —(CH2)n— linkers to the morpholine groups, show particularly potent activity in the Mia-PaCa2 and PANC1 pancreatic carcinoma and A549 lung adenocarcinoma cell lines (IC50 values of 10-20 nM).
For orientation: Sulforhodamine B stains cellular protein and so reports cell mass.

The next test concerns 786-O (renal) cells. In words: SRB growth inhibition assay, 96 hr exposure, 786-O. It counts as cell-based, human. Conditions: versus other lines of the panel. On the procedure:
as §1, §2
(§3) Next a series of structural isomers were tested.

Another test relates to A549 (lung) cells. Description: SRB growth inhibition assay, 96 hr exposure, A549. Conditions: Homo sapiens, A549, 96 h exposure. It counts as cell-based, human. On the procedure:
as §1, §2, §3

A further test deals with Panc1 (pancreatic) cells. In words: SRB growth inhibition assay, 96 hr exposure, Panc1. It counts as cell-based, human. Conditions: Homo sapiens, PANC-1, 96 h exposure. On the procedure: as §1, §2, §3
The next test relates to telomerase. In words: TRAP-LIG cellular telomerase activity assay. It counts as cell-based, human. Conditions: at the doses relevant to the IC50 values. On the procedure: FIG. 1. Gel showing telomerase activity in MIA-Pa-Ca-2 cells treated with compound 3h after seven days of treatment. Lane 1; untreated cells, lanes 2-4; cells treated increasing concentrations of 3h. Telomerase activity was assessed using the TRAP-LIG assay as described in Materials and Methods. Compound concentrations are indicated. Neg; untreated cells, Pos; positive control. Neg: negative control with telomerase but no ligand.
Telomerase activity was determined using the TRAP-LIG assay, a modified telomere repeat amplification protocol that ensures that there is no carry-over of ligand into the second PCR step of the assay. Briefly, 1 μg of protein from untreated and treated cells were incubated with TS forward primer (0.1 μg of 5′-AAT CCG TCG AGC AGA GTT-3′) at 30° C. for 10 min to allow the initial elongation to take place. Elongated products were purified using the QIAquick nucleotide purification kit (Qiagen) according to the manufacturer's instructions. Eluted samples were freeze-dried and re-dissolved in PCR grade water. Re-dissolved PCR products were subjected to amplification in master mix containing ACX reverse primer (1 μM, 5′-GCG CGG [CTTACC]3 CTA ACC-3′), TS forward primer (0.1 μg), TRAP buffer, BSA (5 μg), 0.5 mM dNTPs, and 2U RedHot TAQ polymerase (ABgene, U.K.) for 35 cycles of 94° C. for 30 s, 61° C. for 1 min, and at 72° C. for 1 min. […]

Test [3] has as its system 83 human genes involved in DNA damage signaling responses in Mia-PaCa2 cells. In words: qPCR array, DNA damage signaling response genes. Type of test: cell-based. Conditions: Mia-PaCa2 cells, data not shown. Here is the method: Following compound exposure, cells were washed twice in PBS, harvested by trypsinisation, collected by centrifugation (300 g, 5 min, 4° C.) and re-suspended in RLT buffer (Qiagen). Samples were homogenised using QIAshredder spin columns and stored at −80° C. prior to RNA extraction. Three biological replicates were performed on separate days.
The expression of (i) 83 key human genes involved in telomere replication and maintenance, and (ii) 83 human genes involved in DNA damage signaling responses, was assessed using PCR arrays (SABiosciences). Total RNA was extracted from approximately 1×10^7 Mia-PaCa2 cells treated for 24 h with compound 3d, using the RNeasy kit (Qiagen) with on-column DNaseI treatment to remove residual genomic DNA. The quality of the harvested RNA was confirmed by nanodrop spectroscopy and by analysis with a Human RT^2 RNA QC PCR Array. First-strand cDNA synthesis was performed with the RT^2 first strand kit and qPCR was carried out using the RT^2 qPCR master mix (Qiagen) using 0.5 μg total RNA per array plate in a Stratagene MX-3000P instrument (Agilent, USA). Relative gene expression was determined by the ΔΔCT method using the web-based RT^2 Profiler™ PCR Array Data Analysis software (SABiosciences). Data were normalized to the geometric mean of five housekeeping genes (RPLP10, β-actin, B2M, GAPDH and HPRT1).
Various quadruplex-stabilising agents are known to induce pronounced DNA damage responses. We therefore next assessed the effect of 3d on the transcription of genes associated with DNA damage response and repair pathways. For these pathways the effect of a cytotoxic dosage of 3d (160 nM) on Mia-PaCa2 cells was also tested to assess the correlation between compound-induced DNA damage and cell killing. […] The latter two groups appeared to reflect a dynamic switch in the cellular response from low-level growth inhibition up to 40 nM of 3d to cytostatic then cytotoxic effects at 80 nM and 160 nM respectively.
Instead the response was dominated by genes with roles in growth arrest and more general stress responses.
Background: Quantitative PCR measures a nucleic acid by following its amplification.

Test [4] relates to MiaPaCa2 (pancreatic) cells. Description: SRB growth inhibition assay, MiaPaCa2. It counts as cell-based, human. Here is the method: as §1, §2
Dose-response curves were used to guide the choice of compound concentration and time-points for the array experiments (FIG. 2a). […] To explore this response continuum the transcriptional signature of cells exposed for 24 h to 20 nM, 40 nM, 80 nM concentrations of 3d, or solvent alone as control, was analysed as described in Materials and Methods.
as §3

The next test concerns Mia-PaCa2 cells. In words: Senescence β-galactosidase staining. Type of test: cell-based, human. Conditions: 7 days treatment. On the procedure:
FIG. 4. Micrographs showing the results of staining for evidence of cellular senescence in MiaPaCa2 cells using the β-galactosidase assay. Senescent cells are coloured blue in this procedure. Staining was performed after seven days treatments with (a) vehicle control, ×100 magnification, (b) 3.3 nM of compound 3d, ×200 magnification, (c) 6.6 nM of compound 3d, ×200 magnification, (d) 50 nM of compound 4, ×200 magnification, (e) plot of the percentage of senescent cells at the indicated concentrations of compounds 3d and 4, compared to the background senescence in this cell line (with vehicle control only). Cell counts were performed in triplicate and error bars represent estimated standard deviations.
Senescence detection and quantification experiments were carried out using the Senescence β-galactosidase staining kit (Cell Signalling Technology, MA, USA) according to the manufacturer's protocol. Briefly, 1×10^5 cells were seeded in 6-well plates in 2 ml of medium supplemented with the test compound and incubated for 24 h. Cells were washed (2 ml PBS), fixed (2% formaldehyde and 2% glutaraldehyde in PBS, 15 min, room temperature) and washed (2×2 ml PBS) before staining overnight. Senescent cells, detected by their blue pigmentation, were counted using a light microscope.
CDKN1A encodes the cyclin-dependent kinase p21WAF1 that induces replicative senescence, which is a well-studied consequence of telomerase inhibition and telomere maintenance disruption. […] Compounds 3b and 3d behaved in a similar manner to each other, with concentrations of 3-4 nM being sufficient to result in ˜50-60% of cells becoming senescent after this time-course.

As usually defined, the IC50 is the concentration that gives 50% inhibition.

In the case of `CN1CCN(CCCNc2cc3c4c(c(NCCCN5CCN(C)CC5)cc5c4c2C(=O)N(Cc2ccco2)C5=O)C(=O)N(Cc2ccco2)C3=O)CC1` [Compound 3b, 2,7-bis(furan-2-ylmethyl)-4,9-bis((3-(4-methylpiperazin-1-yl)propyl)amino)benzo[lmn][3,8]phenanthroline-1,3,6,8(2H,7H)-tetraone], in [1], the “telomeric quadruplex stabilization (in words)” value is “low level of quadruplex binding”. In addition, the IC50 in test [2] was in the range of 1000 to 8000 nM.

`CN1CCN(CCCNc2cc3c4c(c(NCCCN5CCN(C)CC5)cc5c4c2C(=O)N(CC2CCOCC2)C5=O)C(=O)N(CC2CCOCC2)C3=O)CC1` [Compound 3c, 4,9-bis((3-(4-methylpiperazin-1-yl)propyl)amino)-2,7-bis((tetrahydro-2H-pyran-4-yl)methyl)benzo[lmn][3,8]phenanthroline-1,3,6,8(2H,7H)-tetraone]: the “telomeric quadruplex stabilization (in words)” value in test [1] is recorded as “low level of quadruplex binding”. For the same molecule, the “selectivity for the renal carcinoma cell line 786-0” value in the test with 786-O (renal) cells is listed as “up to 10 fold”. Besides, in test [2], the IC50 lay within 1000 to 8000 nM.

With `COCCCN1C(=O)c2cc(NCCCN3CCN(C)CC3)c3c4c(cc(NCCCN5CCN(C)CC5)c(c24)C1=O)C(=O)N(CCCOC)C3=O` [Compound 3e, 2,7-bis(3-methoxypropyl)-4,9-bis((3-(4-methylpiperazin-1-yl)propyl)amino)benzo[lmn][3,8]phenanthroline-1,3,6,8(2H,7H)-tetraone], the “telomeric quadruplex stabilization (in words)” value in test [1] was “very slight effect; also recorded: low level of quadruplex binding”. For the same molecule, the 50% inhibitory concentration (IC50) in test [2] fell in the range of 1000 to 8000 nM.

`CN1CCN(CCNc2cc3c4c(c(NCCN5CCN(C)CC5)cc5c4c2C(=O)N(CCCN2CCOCC2)C5=O)C(=O)N(CCCN2CCOCC2)C3=O)CC1` [Compound 3h, 4,9-bis((2-(4-methylpiperazin-1-yl)ethyl)amino)-2,7-bis(3-morpholinopropyl)benzo[lmn][3,8]phenanthroline-1,3,6,8(2H,7H)-tetraone]: the IC50 was 10 to 20 nM in the test with A549 (lung) cells; 10 to 20 nM in the test on Panc1 (pancreatic) cells; 10 to 20 nM in test [4] (Homo sapiens, MIA PaCa-2, SRB assay, 96 h exposure, read-out: IC50 Mia-PaCa2). Also, the telomerase activity inhibition result in the test with telomerase is “not inhibitors of telomerase activity”. In addition, in [3], the “induction of γ-H2AX” value was “do not appear to induce these particular changes”. The “selectivity for Mia-PaCa2 compared to the normal fibroblast line WI-38” value in test [4] is on record as approximately 200 fold.

For the molecule `CN1CCN(CCCNc2cc3c4c(c(NCCCN5CCN(C)CC5)cc5c4c2C(=O)N(CCCN2CCN(C)CC2)C5=O)C(=O)N(CCCN2CCN(C)CC2)C3=O)CC1` [Compound 4, reference compound], the “induction of senescence (in words)” value with Mia-PaCa2 cells is “strong induction of senescence”.
